Results from patent US11919856B2, “Compounds” (UCL BUSINESS LTD, priority 2018, dated 2024).

Tested on: CHO-TET-ON-Z-A1AT cells
Test: Cell viability assay with ER stressor tunicamycin
Assay type: cell-based
Conditions: 10 μM, versus cells expressing wild-type M α1-antitrypsin
Protocol: To investigate the ability of Compound 1 to protect cells from sensitisation to a secondary toxin, Z α1-antitrypsin expression was induced in CHO-TET-ON-Z-A1AT cells in the presence or absence of 10 μM Compound 1 before exposure to varying concentrations of the ER stressor tunicamycin. In a cell viability assay, cells expressing wild-type M α1-antitrypsin were less sensitive to tunicamycin than cells expressing Z α1-antitrypsin.

SMILES: CCC[C@@H](NC(=O)c1cccc2c1CC(=O)N2)[C@@H](O)c1cccc(F)c1C [Compound 1, N-[(1S,2R)-1-(3-fluoro-2-methylphenyl)-1-hydroxypentan-2-yl]-2-oxo-2,3-dihydro-1H-indole-4-carboxamide]
- sensitivity to tunicamycin in cell viability assay: restored sensitivity
